Results taken from patent US20050009706A1, “Alpha-cyanoacrylates” (priority 2001, published 2005).

What was measured:
Amaranthus retroflexus = test: greenhouse experiment, pre-emergence treatment; type: in vivo; conditions: 1.0 kg/ha
Text: (§1) The seeds of the test plants were sown separately for each species. For the pre-emergence treatment, directly after sowing the active compounds, which had been suspended or emulsified in water, were applied by means of finely distributing nozzles. The containers were irrigated gently to promote germination and growth and subsequently covered with transparent plastic hoods until the plant had rooted. This cover caused uniform germination of the test plants, unless this was adversely affected by reactive compounds. The application rate for a pre-emergence treatment was 0.5 or 1.0 kg of a.s. (active substance)/ha. Depending on the species, the plants were kept at 10-25° C. or 20-35° C. The test period extended over 2 to 4 weeks. During this time, the plants were tended, and their response to the individual treatments was evaluated. Evaluation was carried out using a scale from 0 to 100. 100 means no emergence of the plants, or complete destruction of at least the above-ground parts, and 0 means no damage, or normal course of growth. The plants used in the greenhouse experiments were of the following species: [table]

Setaria faberii [1] = test: greenhouse experiment, pre-emergence treatment; type: in vivo
Text: as §1

Pharbitis purpurea = test: greenhouse experiment, post-emergence treatment; type: in vivo
Text: (§2) The seeds of the test plants were sown separately for each species. For the post-emergence treatment, the test plants were first grown to a height of from 3 to 15 cm, depending on the plant habit, and only then treated with the active compounds which had been suspended or emulsified in water. The test plants were for this purpose either sown directly and grown in the same containers, or they were first grown separately as seedlings and transplanted into the test containers a few days prior to treatment. The application rate for the post-emergence treatment was 0.5 or 1.0 kg of a.s. (active substance)/ha. Depending on the species, the plants were kept at 10-25° C. or 20-35° C. The test period extended over 2 to 4 weeks. During this time, the plants were tended, and their response to the individual treatments was evaluated. Evaluation was carried out using a scale from 0 to 100. 100 means no emergence of the plants, or complete destruction of at least the above-ground parts, and 0 means no damage, or normal course of growth. The plants used in the greenhouse experiments were of the following species: [table]

Setaria faberii [2] = test: greenhouse experiment, post-emergence treatment; type: in vivo; conditions: 1.0 kg/ha
Text: as §2

Digitaria sanguinalis = test: greenhouse experiment, pre-emergence treatment; type: in vivo
Text: as §1

melting point	Compound	effect on the harmful plant Setaria faberii (Setaria faberii [1]; 1.0 kg/ha)	post-emergence activity against Pharbitis purpurea (Pharbitis purpurea; 1.0 kg/ha)	other results
	CCC(CC)/C(N)=C(\C#N)C(=O)OC(C)C [Example 4.1, Isopropyl (2Z)-3-amino-2-cyano-4-ethyl-2-hexenoate]	very good	very good	effect on the harmful plant Amaranthus retroflexus (Amaranthus retroflexus): very good; post-emergence activity against Setaria faberii (Setaria faberii [2]): very good
	CCC(C)OC(=O)/C(C#N)=C(\N)C(CC)CC (stereo not drawn) [Example 4.2]			effect on the harmful plant Setaria faberii (Setaria faberii [1]; 0.5 kg/ha): very good; effect on the harmful plant Digitaria sanguinalis (Digitaria sanguinalis; 0.5 kg/ha): very good; post-emergence activity against Pharbitis purpurea (Pharbitis purpurea; 0.5 kg/ha): very good
150 °C	CCC(CC)/C(N)=C(\C#N)C(=O)OC(C)(C)C [Example 4.4]	very good	very good	
	CCC(CC)/C(N)=C(\C#N)C(=O)OCC(C)C [Example 4.5]	very good	very good	effect on the harmful plant Digitaria sanguinalis (Digitaria sanguinalis; 1.0 kg/ha): very good
	CCC(CC)/C(N)=C(\C#N)C(=O)OCC(C)(C)C [Example 4.6]	very good	very good	
	CCC(CC)/C(N)=C(\C#N)C(=O)OC(C)C(C)C (stereo not drawn) [Example 4.7]	good	good	
140 °C	CCC(CC)/C(N)=C(\C#N)C(=O)OC1CCCC1 [Example 4.11]	very good	very good	
154 °C	CCC(CC)/C(N)=C(\C#N)C(=O)OC1CCCCC1 [Example 4.12]			
125 °C	CCC(CC)/C(N)=C(\C#N)C(=O)OCC1CC1 [Example 4.13]	very good		effect on the harmful plant Digitaria sanguinalis (Digitaria sanguinalis; 1.0 kg/ha): very good
	CCC(CC)/C(N)=C(\C#N)C(=O)OC1COC1 [Example 4.14, 3-Oxetanyl (2Z)-3-amino-2-cyano-4-ethyl-2-hexenoat]	very good		
	C=CC(C)OC(=O)/C(C#N)=C(\N)C(CC)CC (stereo not drawn) [Example 4.16]	very good		effect on the harmful plant Digitaria sanguinalis (Digitaria sanguinalis; 1.0 kg/ha): very good
	C#CCOC(=O)/C(C#N)=C(\N)C(CC)CC [Example 4.19]			effect on the harmful plant Setaria faberii (Setaria faberii [1]; 0.5 kg/ha): very good; effect on the harmful plant Digitaria sanguinalis (Digitaria sanguinalis; 0.5 kg/ha): very good
	C#CC(C)OC(=O)/C(C#N)=C(\N)C(CC)CC (stereo not drawn) [Example 4.20]	very good	very good	effect on the harmful plant Digitaria sanguinalis (Digitaria sanguinalis; 1.0 kg/ha): very good
	CCC(CC)/C(N)=C(\C#N)C(=O)OCCC(F)(F)F [Example 4.22]			effect on the harmful plant Setaria faberii (Setaria faberii [1]; 0.5 kg/ha): very good; effect on the harmful plant Digitaria sanguinalis (Digitaria sanguinalis; 0.5 kg/ha): very good
	CCC(CC)/C(N)=C(\C#N)C(=O)OCCCl [Example 4.23]	very good	very good	
115 °C	CCC(CC)/C(N)=C(\C#N)C(=O)OCC(F)(F)F [Example 4.25]	very good		
	CCC(CC)/C(N)=C(\C#N)C(=O)OCCCCl [Example 4.29]	good	very good	
	CCC(CC)/C(N)=C(\C#N)C(=O)OC(C)CCl (stereo not drawn) [Example 4.30]	very good		effect on the harmful plant Digitaria sanguinalis (Digitaria sanguinalis; 1.0 kg/ha): very good

melting point	Compound	effect on the harmful plant Setaria faberii (Setaria faberii [1]; 1.0 kg/ha)	post-emergence activity against Pharbitis purpurea (Pharbitis purpurea; 1.0 kg/ha)	other results
	CCC(CC)/C(N)=C(\C#N)C(=O)OC(C)C#N (stereo not drawn) [Example 4.35]	good		
105 to 110 °C	CCC(CC)/C(N)=C(\C#N)C(=O)OC1CCOC1 (stereo not drawn) [Example 4.38]			
165 °C	CCC(CC)/C(N)=C(\C#N)C(=O)O [Example 4.42, (2Z)-3-Amino-2-cyano-4-ethyl-2-hexene acid]			
180 °C	CCC(CC)/C(N)=C(\C#N)C(=O)OC1CCCO1 (stereo not drawn) [Example 4.43]			
	CCC(COC)/C(N)=C(\C#N)C(=O)OC(C)C (stereo not drawn) [Example 5.2]	very good	very good	
	CCCC(CC)/C(N)=C(\C#N)C(=O)OC(C)C (stereo not drawn) [Example 5.3]	very good		
	CCCC(CCC)/C(N)=C(\C#N)C(=O)OC(C)C [Example 5.6]		very good	
	C=CCC(CC)/C(N)=C(\C#N)C(=O)OC(C)C (stereo not drawn) [Example 5.7]	very good	very good	effect on the harmful plant Digitaria sanguinalis (Digitaria sanguinalis; 1.0 kg/ha): very good
	C=CCC(CC=C)/C(N)=C(\C#N)C(=O)OC(C)C [Example 5.9]		very good	
	C#CCC(CC)/C(N)=C(\C#N)C(=O)OC(C)C (stereo not drawn) [Example 5.10]	very good		
	C#CCC(CC=C)/C(N)=C(\C#N)C(=O)OC(C)C (stereo not drawn) [Example 5.11]		very good	
125 °C	CCC(CC)/C(N)=C(\C#N)C(N)=O [Example 6.1]			
146 °C	CCC(CC)/C(N)=C(\C#N)C(=O)NC [Example 6.2]			
104 to 106 °C	CCNC(=O)/C(C#N)=C(\N)C(CC)CC [Example 6.3]	very good	very good	
164 °C	CCC(CC)/C(N)=C(\C#N)C(=O)NC(C)C [Example 6.5]			
132 °C	CCC(CC)/C(N)=C(\C#N)C(=O)N(C)C [Example 6.21]			
124 °C	CCNC(=O)/C(C#N)=C(\N)C(CC)CC [Example 6.29]			
115 °C	CCC(CC)/C(N)=C(\C#N)C(=O)SC(C)C [Example 7.3]		very good	
